Measured values reported in publication PMC12507957 (Drug Delivery and Translational Research, 2025).
Where two headings read alike, the source gives them in different places.

Legend:
[1] = Mass balance studies after 48-h skin permeation of MTG in solvents; type: in vitro ADME, porcine; details: for recovery at 48 h, 5 %w/v: pig
Description: The in vitro permeation study was performed in triplicate using Franz diffusion cell apparatus with a diffusion area of ~ 0.8 cm^2 and a receptor volume of ~ 3 mL. The porcine skin was thawed at room temperature and cut into an appropriate size before mounting on the Franz diffusion cells. The receptor compartment was filled with PBS containing 0.02%w/v of sodium azide and a selected antioxidant. The Franz diffusion cells were placed into a water bath to maintain the skin temperature at 32 ± 0.5 °C. […] After 48-h permeation studies, the mass balance studies were performed.
Subsequently, the surface of the skin was washed twice with 500 μL of methanol before adding to the same Eppendorf tube containing the cotton buds. The skin was removed from the dissembled Franz diffusion cell and cut into pieces before placing in another Eppendorf tube containing 1 mL of methanol. All samples were vortexed and analysed using HPLC (Sect. HPLC analysis).
Samples were analysed using Shimadzu liquid chromatographic system (Kyoto, Japan) with SPD-20A UV–vis detector set at 254 nm. A reverse phase ZORBAX Eclipse Plus C18 column (Agilent Technologies, 150 × 4.6 mm ID × 3.5 μm) coupled with a C18 guard column (Phenomenex SecurityGuard™, 4 × 3.0 mm ID × 5 μm) was employed as the stationary phase. A gradient elution method with acetonitrile and 0.1%v/v of formic acid as the mobile phase (30:70 to 70:30 (v/v) over 1 min and held until 4 min; then returned to 30:70 (v/v) from 4 to 6 min and held up until 10 min) at a flow rate of 1.2 mL/min was used. The injection volume was set at 100 μL and the total run time was 10 min with a retention time of ~ 4 min.

[2] = 32 °C; cited from earlier work
[3] = rats; cited from earlier work
[4] = beagle dogs; cited from earlier work
[5] = 5%w/v MTG in DMSO, receptor PBS with 0.01%w/v ascorbic acid (DMSO-AA), 48 h
[6] = 5%w/v MTG in Labrasol, receptor PBS with 0.01%w/v ascorbic acid (Labrasol-AA), 48 h
[7] = 5%w/v MTG in Labrasol, receptor PBS without ascorbic acid, 48 h
[8] = 5%w/v MTG in Lauroglycol, receptor PBS with 0.01%w/v ascorbic acid (Lauroglycol-AA), 48 h
[9] = 5%w/v MTG in Lauroglycol, receptor PBS without ascorbic acid, 48 h
[10] = 5%w/v MTG in Maisine, receptor PBS with 0.01%w/v ascorbic acid (Maisine-AA), 48 h
[11] = 5%w/v MTG in Maisine, receptor PBS without ascorbic acid, 48 h
[12] = 5%w/v MTG in PG, receptor PBS with 0.01%w/v ascorbic acid (PG-AA), 48 h
[13] = 5%w/v MTG in Transcutol, receptor PBS with 0.01%w/v ascorbic acid (Transcutol-AA), 48 h
[14] = 5%w/v MTG in Transcutol, receptor PBS without ascorbic acid, 48 h

Which “Permeation (%)” value [1, 5] does the source give for `CC[C@@H]1CN2CCc3c([nH]c4cccc(OC)c34)[C@@H]2C[C@@H]1/C(=C\OC)C(=O)OC` [MTG, mitragynine] here?
Its value is 0.77 ± 0.12%.

What about the Skin extraction [1, 5] of the same compound?
The Skin extraction was 0.91 ± 0.19%.

What about the “Washing (on skin surface)” value [1, 5] of the same compound?
The value was 48.69 ± 0.86%.

What about the “Permeation (%)” value [1, 6] of the same compound?
The value was 0.08 ± 0.05%.

And the Skin extraction [1, 6]?
The Skin extraction was 3.23 ± 1.80%.

And the “Washing (on skin surface)” value [1, 6]?
Its value is 70.50 ± 5.24%.

And the “Permeation (%)” value [1, 7]?
The value was 0.07 ± 0.07%.

What about the Skin extraction [1, 7] of the same compound?
Its Skin extraction is 3.67 ± 0.45%.

What about the “Washing (on skin surface)” value [1, 7] of the same compound?
The value was 65.82 ± 5.20%.

And the “Permeation (%)” value [1, 8]?
Its value is 0.18 ± 0.12%.

And the Skin extraction [1, 8]?
Its Skin extraction is 1.96 ± 1.22%.

What about the “Washing (on skin surface)” value [1, 8] of the same compound?
Its value is 57.28 ± 15.05%.

And the “Permeation (%)” value [1, 9]?
The value was 0.04 ± 0.01%.

And the Skin extraction [1, 9]?
Its Skin extraction is 0.52 ± 0.38%.

And the “Washing (on skin surface)” value [1, 9]?
The value was 66.42 ± 2.26%.

What about the “Permeation (%)” value [1, 10] of the same compound?
Its value is 0.42 ± 0.13%.

What about the Skin extraction [1, 10] of the same compound?
Its Skin extraction is 1.34 ± 0.55%.

What about the “Washing (on skin surface)” value [1, 10] of the same compound?
The value was 60.12 ± 1.46%.

And the “Permeation (%)” value [1, 11]?
The value was 0.11 ± 0.10%.

What about the Skin extraction [1, 11] of the same compound?
Its Skin extraction is 0.45 ± 0.18%.

And the “Washing (on skin surface)” value [1, 11]?
Its value is 61.67 ± 5.42%.

What about the “Permeation (%)” value [1, 12] of the same compound?
The value was 0.30 ± 0.11%.

And the Skin extraction [1, 12]?
Its Skin extraction is 1.04 ± 0.20%.

What about the “Washing (on skin surface)” value [1, 12] of the same compound?
Its value is 45.95 ± 5.07%.

What about the “Permeation (%)” value [1, 13] of the same compound?
The value was 0.51 ± 0.22%.

And the Skin extraction [1, 13]?
The Skin extraction was 2.29 ± 0.57%.

What about the “Washing (on skin surface)” value [1, 13] of the same compound?
Its value is 50.98 ± 9.49%.

And the “Permeation (%)” value [1, 14]?
The value was 0.19 ± 0.07%.

What about the Skin extraction [1, 14] of the same compound?
The Skin extraction was 2.08 ± 1.11%.

What about the “Washing (on skin surface)” value [1, 14] of the same compound?
The value was 71.94 ± 8.01%.

What about the recovery at 48 h, 5 %w/v ([1]; 5%w/v MTG in DMSO, receptor PBS with 0.01%w/v ascorbic acid (DMSO-AA), 48 h, read-out: Total percentage (mass balance recovery)) of the same compound?
The recovery at 48 h, 5 %w/v was 50.7 ± 1.17%.

And the recovery at 48 h, 5 %w/v ([1]; 5%w/v MTG in Labrasol, receptor PBS with 0.01%w/v ascorbic acid (Labrasol-AA), 48 h, read-out: Total percentage (mass balance recovery))?
Its recovery at 48 h, 5 %w/v is 75.7 ± 7.09%.

And the recovery at 48 h, 5 %w/v ([1]; 5%w/v MTG in Labrasol, receptor PBS without ascorbic acid, 48 h, read-out: Total percentage (mass balance recovery))?
Its recovery at 48 h, 5 %w/v is 70.1 ± 5.72%.

What about the recovery at 48 h, 5 %w/v ([1]; 5%w/v MTG in Lauroglycol, receptor PBS without ascorbic acid, 48 h, read-out: Total percentage (mass balance recovery)) of the same compound?
The recovery at 48 h, 5 %w/v was 67.4 ± 2.65%.

And the recovery at 48 h, 5 %w/v ([1]; 5%w/v MTG in PG, receptor PBS with 0.01%w/v ascorbic acid (PG-AA), 48 h, read-out: Total percentage (mass balance recovery))?
The recovery at 48 h, 5 %w/v was 47.6 ± 5.37%.

What about the recovery at 48 h, 5 %w/v ([1]; 5%w/v MTG in Transcutol, receptor PBS without ascorbic acid, 48 h, read-out: Total percentage (mass balance recovery)) of the same compound?
The recovery at 48 h, 5 %w/v was 75.4 ± 9.19%.

And the recovery at 48 h, 5 %w/v ([1]; Mitragynine recovery in mass balance studies, 5%w/v in single solvent systems)?
Its recovery at 48 h, 5 %w/v is < 80%.

What about the “Saturated solubility of MTG in PBS” value [2] of the same compound?
Its value is 77.10 ± 5.17 µg/mL.

And the Oral bioavailability [3]?
The Oral bioavailability was 3%.

What about the Oral bioavailability [4] of the same compound?
Its Oral bioavailability is 69.6%.
